Experimental data taken from US4623662A, “Antiatherosclerotic ureas and thioureas” (American Cyanamid Company, priority 1985, dated 1986).
Read-outs that look alike come from different tables or passages of the source.

Target: T1, fatty acyl CoA: cholesterol acyl transferase (ACAT) (Rattus norvegicus, UniProt O70536)
T1 construct: The supernatant, containing the microsomal fraction, served as the source of the cholesterol-esterifying enzyme; from tissue; host or cells: rat adrenals, supernatant of 1,000 x g centrifugation containing the microsomal fraction
T1 sequence (O70536 1-545): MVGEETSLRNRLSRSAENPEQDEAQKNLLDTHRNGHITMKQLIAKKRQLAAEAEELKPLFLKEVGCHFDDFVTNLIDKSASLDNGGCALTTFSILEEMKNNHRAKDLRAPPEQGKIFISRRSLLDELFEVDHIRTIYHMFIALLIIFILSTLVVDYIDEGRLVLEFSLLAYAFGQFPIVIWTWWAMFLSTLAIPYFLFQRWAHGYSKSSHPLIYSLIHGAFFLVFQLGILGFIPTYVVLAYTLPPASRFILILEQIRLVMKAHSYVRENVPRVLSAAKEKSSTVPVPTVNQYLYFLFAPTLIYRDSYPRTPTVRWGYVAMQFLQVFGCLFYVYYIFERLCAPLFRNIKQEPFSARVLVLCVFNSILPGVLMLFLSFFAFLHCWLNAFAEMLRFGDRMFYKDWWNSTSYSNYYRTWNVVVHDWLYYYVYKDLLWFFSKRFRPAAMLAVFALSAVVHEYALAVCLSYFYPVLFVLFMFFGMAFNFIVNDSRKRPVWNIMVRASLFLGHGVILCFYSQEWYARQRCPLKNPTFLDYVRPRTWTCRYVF
Assay: Inhibition of fatty acyl CoA:cholesterol acyl transferase (ACAT), rat adrenal enzyme
Assay type: biochemical
Experimental: The compounds of the present invention were assayed for two types of biological activity related to their potential use as antiatherosclerotic agents. Compounds were tested in vitro for the ability to inhibit the enzyme fatty acyl CoA: cholesterol acyl transferase (ACAT) and in vivo for serum hypolipidemic activity as meausred by the ability to inhibit lipid absorption in rats.
The compounds were tested for their ability to inhibit ACAT according to the following procedure: rat adrenals were homogenized in 0.2M monobasic potassium phosphate buffer, pH 7.4, and centrifuged at 1,000 times gravity for 15 minutes at 5° C. The supernatant, containing the microsomal fraction, served as the source of the cholesterol-esterifying enzyme, fatty acyl CoA:cholesterol acyl transferase (ACAT). A mixture comprising 50 parts of adrenal supernatant, 10 parts of bovine serum albumin (50 mg/ml), 3 parts of test compound (final concentration 5.2 μg/ml), and 500 parts of buffer was preincubated at 37° C. for 10 minutes. After treatment with 20 parts of oleoyl CoA (^14 C-0.4 μCi), the mixture was incubated at 37° C. for 10 minutes. A control mixture, omitting the test compound, was prepared and treated in the same manner. The lipids from the incubation mixture was extracted into an organic solvent and separated by thin-layer chromatography. The cholesteryl ester fraction was counted in a scintillation counter. This procedure is a modification of that described by Hashimoto, et al., Life Scie., 12 (Part II), 1-12 (1973).
Compounds which produced statistically significant inhibition of the ACAT enzyme are considered to be active.
In addition to the above described test and the results given in terms of percent inhibition, various compounds of this invention were tested by the same procedure at several concentrations. The results of this test are given in Table II in terms of IC50 (μM), that concentration which produced 50% inhibition of the ACAT enzyme.

[1] = rat adrenal ACAT, final concentration 5.2 μg/ml, read-out: % Inhibition

SMILES	inhibition at 5.2 µg/mL [1]	inhibition at 5.2 µg/mL
CCCCCCCCCCCCCCN(Cc1ccccc1)C(=O)Nc1ccc(C)cc1C [1-(n-Tetradecyl)-1-benzyl-3-(2,4-dimethylphenyl)urea]	80.3%	–
CCCCc1ccc(CN(Cc2ccccc2)C(=O)Nc2ccc(Oc3ccccc3)cc2)cc1 [1-Benzyl-1-(4-n-butylbenzyl)-3-(4-phenoxyphenyl)urea]	93.5%	–
CCCCN(Cc1ccccc1)C(=O)Nc1cccc(C)c1C [1-Benzyl-1-( -n-butyl)-3-(2,3-dimethylphenyl)urea]	85.8%	–
CCCCN(Cc1ccccc1)C(=O)Nc1c(C)cc(C)cc1C [1-Benzyl-1-( -n-butyl)-3-(2,4,6-trimethylphenyl)urea]	75.8%	–
CCCCN(Cc1ccccc1)C(=O)Nc1cc(C)ccc1C [1-Benzyl-1-( -n-butyl)-3-(2,5-dimethylphenyl)urea]	92.7%	–
CCCCN(Cc1ccccc1)C(=O)Nc1ccccc1C [1-Benzyl-1-( -n-butyl)-3-(2-methylphenyl)urea]	78.8%	–
CCCCN(Cc1ccccc1)C(=O)Nc1ccc(Cl)c(Cl)c1 [1-Benzyl-1-( -n-butyl)-3-(3,4-dichlorophenyl)urea]	95.9%	–
CCCCN(Cc1ccccc1)C(=O)Nc1ccc(C)c(C)c1 [1-Benzyl-1-( -n-butyl)-3-(3,4-dimethylphenyl)urea]	87.1%	–
CCCCN(Cc1ccccc1)C(=O)Nc1cc(Cl)cc(Cl)c1 [1-Benzyl-1-( -n-butyl)-3-(3,5-dichlorophenyl)urea]	90.7%	–
CCCCN(Cc1ccccc1)C(=O)Nc1cccc(Cl)c1OC [1-Benzyl-1-( -n-butyl)-3-(3-chloro-2-methoxyphenyl)urea]	84.5%	–
CCCCN(Cc1ccccc1)C(=O)Nc1cccc(C)c1 [1-Benzyl-1-( -n-butyl)-3-(3-methylphenyl)urea]	92.3%	–
CCCCN(Cc1ccccc1)C(=O)Nc1cccc(C(F)(F)F)c1 [1-Benzyl-1-( -n-butyl)-3-(3-trifluoromethylphenyl)urea]	85.7%	–
CCCCN(Cc1ccccc1)C(=O)Nc1ccc(C)cc1 [1-Benzyl-1-( -n-butyl)-3-(4-methylphenyl)urea]	78%	–
CCCCN(Cc1ccccc1)C(=O)Nc1cc(Cl)ccc1OC [1-Benzyl-1-( -n-butyl)-3-(5-chloro-2-methoxyphenyl)urea]	80.6%	–
CCCCN(Cc1ccccc1)C(=O)Nc1cccc(Cl)c1 [1-Benzyl-1-(n-butyl)-3-(3-chlorophenyl)urea]	88.6%	–
CCCCN(Cc1ccccc1)C(=S)Nc1ccccc1 [1-Benzyl-1-(n-butyl)-3-phenyl thiourea]	82.4%	–
COc1cccc(C(Cc2ccccc2)N(Cc2ccccc2)C(=O)Nc2ccc(C)cc2C)c1 (stereo not drawn) [1-Benzyl-1-[1-(3-methoxyphenyl)-2-phenylethyl]-3-(2,4-dimethylphenyl)urea]	86.4%	–
COc1cccc(C(Cc2ccccc2)N(Cc2ccccc2)C(=O)Nc2cccc(C(F)(F)F)c2)c1 (stereo not drawn) [1-Benzyl-1-[1-(3-methoxyphenyl)-2-phenylethyl]-3-(3-trifluoromethylphenyl)urea]	88.1%	–
Cc1ccc(NC(=O)N(Cc2ccccc2)C(Cc2ccccc2)c2ccc(OCc3ccccc3)cc2)c(C)c1 (stereo not drawn) [1-Benzyl-1-[1-(4-benzyloxyphenyl)-2-phenylethyl]-3-(2,4-dimethylphenyl)urea]	93%	–
O=C(Nc1cc(Cl)c(Cl)cc1Cl)N(Cc1ccccc1)C(Cc1ccccc1)c1ccc(OCc2ccccc2)cc1 (stereo not drawn) [1-Benzyl-1-[2-phenyl-1-(4-benzyloxyphenyl)ethyl]-3-(2,4,5-trichlorophenyl)urea]	95%	–

SMILES	inhibition at 5.2 µg/mL [1]	inhibition at 5.2 µg/mL
Cc1cc(C)c(NC(=O)N(Cc2ccccc2)C(Cc2ccccc2)c2ccc(OCc3ccccc3)cc2)cc1C (stereo not drawn) [1-Benzyl-1-[2-phenyl-1-(4-benzyloxyphenyl)ethyl]-3-(2,4,5-trimethylphenyl)urea]	93.7%	–
O=C(Nc1ccc(Cl)cc1C(F)(F)F)N(Cc1ccccc1)C(Cc1ccccc1)c1ccc(OCc2ccccc2)cc1 (stereo not drawn) [1-Benzyl-1-[2-phenyl-1-(4-benzyloxyphenyl)ethyl]-3-(2-trifluoromethyl-4-chlorophenyl)urea]	92%	–
O=C(Nc1cccc(C(F)(F)F)c1)N(Cc1ccccc1)C(Cc1ccccc1)c1ccc(OCc2ccccc2)cc1 (stereo not drawn) [1-Benzyl-1-[2-phenyl-1-(4-benzyloxyphenyl)ethyl]-3-(3-trifluoromethylphenyl)urea]	74%	–
CC(C)(C)CCN(Cc1ccccc1)C(=O)Nc1c(F)cc(F)cc1F [1-Benzyl-1-[3,3-dimethylbutyl]-3-[2,4,6-trifluorophenyl]urea]	–	90%
COc1ccc(OC)c(CCN(Cc2cccc(Cl)c2)C(=O)Nc2ccc(C)cc2C)c1 [1-[2-(2,5-Dimethoxyphenyl)ethyl]-1-(3-chlorobenzyl)-3-(2,4-dimethylphenyl)urea]	97.1%	–
Cc1ccc(NC(=O)N(CCc2ccccc2Cl)Cc2ccc(C)c(C)c2)c(C)c1 [1-[2-(2-Chlorophenyl)ethyl]-1-(3,4-dimethylbenzyl)-3-(2,4-dimethylphenyl)urea]	92.8%	–
Cc1cccc(CN(CCc2ccccc2Cl)C(=O)Nc2ccc(C)cc2C)c1 [1-[2-(2-Chlorophenyl)ethyl]-1-(3-methylbenzyl)-3-(2,4-dimethylphenyl)urea]	56.1%	–
Cc1ccc(NC(=O)N(CCc2ccccc2C)Cc2ccc(Br)cc2)c(C)c1 [1-[2-(2-Methylphenyl)ethyl]-1-(4-bromobenzyl)-3-(2,4-dimethylphenyl)urea]	29.2%	–
COc1ccc(CCN(Cc2ccc(C)c(Cl)c2)C(=O)Nc2ccc(C)cc2C)cc1OC [1-[2-(3,4-Dimethoxyphenyl)ethyl]-1-(3-chloro-4-methylbenzyl)-3-(2,4-dimethylphenyl)urea]	53.3%	–
COc1ccc(CCN(Cc2ccc(F)cc2)C(=O)Nc2ccc(C)cc2C)cc1OC [1-[2-(3,4-Dimethoxyphenyl)ethyl]-1-(4-fluorobenzyl)-3-(2,4-dimethylphenyl)urea]	57.4%	–
Cc1ccc(CN(CCc2cccc(F)c2)C(=O)Nc2ccc(C)cc2C)cc1 [1-[2-(3-Fluorophenyl)ethyl]-1-(4-methylbenzyl)-3-(2,4-dimethylphenyl)urea]	–	80.5%
Cc1cccc(CCN(Cc2cccc([N+](=O)[O-])c2)C(=O)Nc2ccc(C)cc2C)c1 [1-[2-(3-Methylphenyl)ethyl]-1-(3-nitrobenzyl)-3-(2,4-dimethylphenyl)urea]	95.7%	–
Cc1ccc(NC(=O)N(CCc2cccc(C(F)(F)F)c2)Cc2ccccc2Cl)c(C)c1 [1-[2-(3-Trifluoromethylphenyl)ethyl]-1-(2-chlorobenzyl)-3-(2,4-dimethylphenyl)urea]	7.8%	–
CCOc1ccc(CCN(Cc2ccc(C)cc2C)C(=O)Nc2ccc(C)cc2C)cc1 [1-[2-(4-Ethoxyphenyl)ethyl]-1-(2,4-dimethylbenzyl)-3-(2,4-dimethylphenyl)urea]	34.9%	–
CCOc1ccc(CCN(Cc2ccccc2Cl)C(=O)Nc2ccc(C)cc2C)cc1 [1-[2-(4-Ethoxyphenyl)ethyl]-1-(2-chlorobenzyl)-3-(2,4-dimethylphenyl)urea]	94.1%	–
CC(C)(C)CCN(Cc1ccc(CC(C)(C)C)cc1)C(=O)Nc1c(F)cc(F)cc1F [1-[3,3-dimethylbutyl]-1-[[4-(2,2-dimethylpropyl)phenyl]methyl]-3-[2,4,6-trifluorophenyl]urea]	–	90%
CCCCc1ccc(CN(CCCCCCOS(C)(=O)=O)C(=O)Nc2c(Cl)cc(Cl)cc2Cl)cc1 [1-[(4-Butylphenyl)methyl]-1-[6-(methylsulfonyloxy)-hexyl]-3-(2,4,6-trichlorophenyl)urea]	–	90%
CCCCc1ccc(CN(CCCCCCO)C(=O)Nc2ccc(C)cc2C)cc1 [1-[(4-Butylphenyl)methyl]-3-(2,4-dimethylphenyl)-1-(6-hydroxyhexyl)urea]	96.8%	–
CCCCc1ccc(CN(CCOCCO)C(=O)Nc2ccc(C)cc2C)cc1 [1-[(4-Butylphenyl)methyl]-3-(2,4-dimethylphenyl)-1-[2-(2-hydroxyethoxy)ethyl]urea]	74.5%	–
